Reference: patent EP4023291A1, “FAT METABOLISM PROMOTER” (Asahi Group Holdings, Ltd., priority 2019, dated 2021)

Assays:
non-transformed cells = test: Test 9: TRPA1 activity test, non-transformed cells; assay type: cell-based, human; conditions: maximum values, average ± standard deviation; concentration after adding per Table 7 (10.2-28.2 ppm)
Protocol: Also for HEK293T cells without transfer of the TRPA1 gene (hereinafter, also referred to as "non-transformed cells"), as a reference, 50 µL of the test solution of Example 9 and 50 µL of the test solution of Comparative Example 6 were added with the same method as performed for the cells with forced expression of TRPA1, and ΔRFU was determined.
(§1) In the present test, test solutions of Examples 13 to 28 and Comparative Examples 9 to 14 described later were used in place of the test solutions used in First Testing Method of Test 5. Except that, the amount of change in RFU before and after addition of each test solution (ΔRFU) was determined for cells with forced expression of TRPA1 and non-transformed cells with the same method as First Testing Method of Test 5.
The test solutions of Examples 13 to 28 and Comparative Examples 10 to 14 used in the present test were each obtained by adding a compound listed in Table 7 into HEPES buffer. The octanol/water partition coefficient (log Pow) of each compound listed in Table 7 was calculated with XlogP (Shanghai Institute of Organic Chemistry, Chinese Academy of Sciences, http://WWW.sio-ccbg.ac.cn/software/xlogp3/), which is software using the XlogP3 algorithm. Each test solution was added as 50-µL portions to wells, and the concentrations of the compounds were set to concentrations shown in Table 7. HEPES buffer was used as the test solution of Comparative Example 9 for a negative control (N.C.), and added as 50-µL portions to wells.
Table 7 and Figure 18 show average ± standard deviation of maximum values of ΔRFU. In the present test, SoftMax Pro Vr. 6 (manufactured by Molecular Devices, LLC.) and Excel (manufactured by Microsoft Corporation) were used for data analysis.

TRPA1 = molecular target: T1, TRPA1 (Homo sapiens, UniProt O75762); test: Test 9: TRPA1 activity test, cells with forced expression of TRPA1; assay type: cell-based; conditions: for Δ RFU in cells with forced expression of TRPA1: maximum values, average ± standard deviation, concentration after adding per Table 7 (10.2-28.2 ppm); for Δ RFU in cells with forced expression of TRPA1 / Δ RFU in non-transformed cells: ratio of maximum ΔRFU values, concentration after adding per Table 7
T1 construct: expressed in transfected cells; host or cells: HEK293T cells, transient transfection with Lipofectamine 2000
T1 sequence (O75762 whole entry): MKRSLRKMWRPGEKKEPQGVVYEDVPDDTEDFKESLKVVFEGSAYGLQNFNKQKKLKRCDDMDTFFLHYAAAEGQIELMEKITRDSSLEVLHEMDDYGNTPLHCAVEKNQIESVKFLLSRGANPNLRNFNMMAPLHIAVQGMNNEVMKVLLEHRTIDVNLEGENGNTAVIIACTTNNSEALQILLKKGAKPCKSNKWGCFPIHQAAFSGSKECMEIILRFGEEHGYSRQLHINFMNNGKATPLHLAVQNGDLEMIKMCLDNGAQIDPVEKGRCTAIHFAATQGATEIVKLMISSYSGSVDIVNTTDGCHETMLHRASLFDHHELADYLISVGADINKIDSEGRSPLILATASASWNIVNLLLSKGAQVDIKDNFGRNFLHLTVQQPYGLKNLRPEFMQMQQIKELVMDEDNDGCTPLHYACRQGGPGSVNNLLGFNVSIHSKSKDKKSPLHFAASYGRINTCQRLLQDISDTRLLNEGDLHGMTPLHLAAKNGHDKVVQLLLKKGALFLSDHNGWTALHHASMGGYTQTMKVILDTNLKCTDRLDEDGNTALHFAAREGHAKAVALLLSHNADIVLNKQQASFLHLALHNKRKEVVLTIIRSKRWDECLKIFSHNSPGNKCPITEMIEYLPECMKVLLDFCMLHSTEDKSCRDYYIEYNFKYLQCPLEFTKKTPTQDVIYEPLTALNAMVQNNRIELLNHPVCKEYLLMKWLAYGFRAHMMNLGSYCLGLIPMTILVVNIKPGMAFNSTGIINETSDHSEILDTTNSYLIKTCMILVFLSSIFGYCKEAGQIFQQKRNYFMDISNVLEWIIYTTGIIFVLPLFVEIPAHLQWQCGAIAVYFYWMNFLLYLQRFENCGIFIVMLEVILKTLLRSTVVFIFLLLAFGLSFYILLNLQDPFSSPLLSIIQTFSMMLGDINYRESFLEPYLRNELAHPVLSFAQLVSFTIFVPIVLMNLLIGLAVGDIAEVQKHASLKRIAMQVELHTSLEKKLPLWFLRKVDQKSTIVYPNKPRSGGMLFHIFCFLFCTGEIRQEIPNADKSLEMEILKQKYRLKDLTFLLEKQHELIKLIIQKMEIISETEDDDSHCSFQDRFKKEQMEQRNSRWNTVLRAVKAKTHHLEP
Protocol: In the present test, first, human embryonic HEK293T cells were first suspended in DMEM medium to which penicillin-streptomycin (manufactured by Thermo Fisher Scientific, Inc.) and fetal bovine serum (manufactured by Sigma-Aldrich Co. LLC) were added to reach concentrations of 100 Unit/mL, 100 µg/mL, and 10%, respectively, seeded in a 96-well plate at a volume of 100 µL/well, and cultured under conditions of 5% CO2 and 37°C until a cell density reached 70 to 90%.
Thereafter, the DMEM medium in each well was completely removed, to which OptiMEM medium (manufactured by Thermo Fisher Scientific, Inc.) containing the gene transfer reagent Lipofectamine 2000 (manufactured by Thermo Fisher Scientific, Inc.) and a hTRPA1 gene expression plasmid was added at a volume of 50 µL/well. Then, culture was performed under conditions of 37°C and 5% CO2 for approximately 24 hours to transfer the TRPA1 gene into the HEK293T cells. The contents of Lipofectamine 2000 and the hTRPA1 gene expression plasmid per 50 µL of the OptiMEM medium were 0.3 µL and 400 ng, respectively. The TRPA1 gene can be confirmed with a DNA database such as GenBank.
When the density of the HEK293T cells transfected in the described manner (hereinafter, also referred to as "cells with forced expression of TRPA1") reached 90 to 100%, FLIPR Calcium 6 Assay Kit (manufactured by Molecular Devices, LLC.), a calcium-sensitive fluorescent dye, was added at a volume of 50 µL/well, and culture was performed under conditions of 37°C and 5% CO2 for 2 hours. Here, the expression of TRPA1 on cell membranes was confirmed by response to cinnamaldehyde (manufactured by Wako Pure Chemical Industries, Ltd.), which is a known TRPA1 ligand. DMSO was used for dilution of cinnamaldehyde, and the DMSO concentration in each well was set to 0.1% in view of cytotoxicity.
Ethyl caproate was added to HEPES buffer (10 mM HEPES, 130 mM NaCl, 5 mM KCl, 10 mM glucose, 2 mM CaCl2·2H2O, 1.2 mM MgCl2·6H2O, pH = 7.40), and thus a test solution of Example 9 containing ethyl caproate in a concentration of 255 ppm was obtained. For a negative control (N.C.), HEPES buffer was used as a test solution of Comparative Example 6. Measurement of fluorescence intensity for the cells with forced expression of TRPA1 was initiated, and, 20 seconds thereafter, 50-µL portions of each of the test solutions prepared were added to three wells. After the lapse of a predetermined period of time, the measurement of fluorescence intensity was completed, and ratios of fluorescence intensity at each time after addition of a test solution as the average of fluorescence intensity before addition of a test solution was assumed as 1 (hereinafter, also referred to as "RFU (relative fluorescence units)") were determined from measurements of fluorescence intensity. Further, change rates in RFU before and after addition of a test solution (hereinafter, also referred to as "ΔRFU") were determined at each time after addition of a test solution. Fluorescence intensity was measured by using a FlexStation 3 (manufactured by Molecular Devices, LLC.). The measurement of fluorescence intensity was performed at room temperature, and each test solution was used for adding to wells at room temperature, too.
as §1
The test solutions of Examples 13 to 28 and Comparative Examples 10 to 14 used in the present test were each obtained by adding a compound listed in Table 7 into HEPES buffer. […]

| Compound | Δ RFU in non-transformed cells (non-transformed cells) | Δ RFU in cells with forced expression of TRPA1 (TRPA1) | Δ RFU in cells with forced expression of TRPA1 / Δ RFU in non-transformed cells (TRPA1) |
| --- | --- | --- | --- |
| CCCCCCCOC(C)=O [Example 16, Heptyl acetate] | 0.0 ± 0.0 | 3.5 ± 0.7 | 127.8 |
| CCCCC(=O)OCC [Example 19, Ethyl valerate] | 0.1 ± 0.0 | 0.6 ± 0.1 | 5.6 |
| CCCCCCCCCCCC(=O)OCC [Comparative Example 14, Ethyl laurate, reference compound] | 0.2 ± 0.0 | 0.2 ± 0.0 | 0.8 |
| CCOC(C)=O [Comparative Example 10, Ethyl acetate, reference compound] | 0.3 ± 0.0 | 0.2 ± 0.1 | 0.7 |
| CCC(C)COC(C)=O (stereo not drawn) [Example 15, 2-Methylbutyl acetate] | 0.2 ± 0.0 | 0.6 ± 0.0 | 2.9 |
| CCCCCOC(C)=O [Example 14, Pentyl acetate] | 0.1 ± 0.0 | 0.8 ± 0.1 | 12.1 |
| CCCCCCCC(=O)OCC [Example 28, Ethyl caprylate] | 0.1 ± 0.0 | 2.3 ± 0.4 | 19.0 |
| CCCCCC(=O)OCC [Example 22, Ethyl caproate] | 0.2 ± 0.0 | 2.2 ± 0.8 | 12.7 |
| CCCCCC(=O)OCCC(C)C [Example 25, Isoamyl caproate] | 0.2 ± 0.0 | 3.0 ± 0.2 | 16.2 |
| CCCCCC(=O)OCCCC [Example 24, Butyl caproate] | 0.1 ± 0.0 | 4.1 ± 0.3 | 29.1 |
| CCC(=O)OCCC(C)C [Example 17, Isoamyl propionate] | 0.1 ± 0.0 | 1.5 ± 0.5 | 12.4 |
| CCCCCC(=O)OC [Example 21, Methyl caproate] | 0.2 ± 0.0 | 1.2 ± 0.2 | 5.4 |
| CC(=O)OCCC(C)C [Example 13, Isoamyl acetate] | 0.2 ± 0.0 | 0.7 ± 0.0 | 3.4 |
| CCCC(=O)OCCC(C)C [Example 18, Isoamyl butyrate] | 0.1 ± 0.0 | 2.0 ± 0.4 | 19.3 |
| CCCCCCCC(=O)OC [Example 27, Methyl caprylate] | 0.1 ± 0.0 | 0.7 ± 0.1 | 8.3 |
| CCOC(=O)CC [Comparative Example 12, Ethyl propionate, reference compound] | 0.3 ± 0.1 | 0.3 ± 0.0 | 0.9 |
| CCCCCOC(=O)CCCCC [Example 26, Pentyl caproate] | 0.3 ± 0.1 | 3.5 ± 1.1 | 12.8 |
| CCCCCC(=O)OCCC [Example 23, Propyl caproate] | 0.2 ± 0.0 | 2.7 ± 1.1 | 12.9 |
| CCCOC(C)=O [Comparative Example 11, Propyl acetate, reference compound] | 0.3 ± 0.0 | 0.2 ± 0.0 | 0.8 |
| CCOC(=O)CCC(C)C [Example 20, Ethyl 4-methylvalerate] | 0.1 ± 0.0 | 2.0 ± 0.1 | 27.6 |
| CCCCCCCC(=O)OCCC(C)C [Comparative Example 13, Isoamyl caprylate, reference compound] | 0.3 ± 0.0 | 0.2 ± 0.1 | 0.6 |
